ChEMBL document CHEMBL6153051, “Synthesis, biological evaluation and validation of IMB-881 derivatives as anti-Gram-negative bacterial agents” (Bioorg Med Chem, 2025)
Values after ≈ are worked out from the molar mass of the structure shown.

How the values were obtained:
[1] = system: Escherichia coli; test: Antibacterial activity against Escherichia coli ATCC 25922 assessed as bacterial growth inhibition in presence of CAMHB medium by broth microdilution method; format: functional
[2] = system: Acinetobacter baumannii; test: Antibacterial activity against Acinetobacter baumannii ATCC 19606 assessed as bacterial growth inhibition in presence of CAMHB medium by broth microdilution method; format: functional
[3] = system: Klebsiella pneumoniae; test: Antibacterial activity against Klebsiella pneumoniae ATCC […] assessed as bacterial growth inhibition in presence of CAMHB medium by broth microdilution method; format: functional
[4] = system: Pseudomonas aeruginosa; test: Antibacterial activity against Pseudomonas aeruginosa PAO1 assessed as bacterial growth inhibition in presence of CAMHB medium by broth microdilution method; format: functional
[5] = Cytotoxicity against green monkey Vero cells incubated for 48 hrs by CCK-8 assay; format: toxicity, cell-based; conditions: green monkey (Chlorocebus sabaeus)
[6] = Cytotoxicity against dog MDCK cells incubated for 48 hrs by CCK-8 assay; format: toxicity, cell-based; conditions: dog (Canis lupus familiaris)
[7] = system: Escherichia coli; test: Antibacterial activity against ESBL(+) producing Escherichia coli ATCC 35218 assessed as bacterial growth inhibition in presence of CAMHB medium by broth microdilution method; format: functional
[8] = system: Escherichia coli; test: Antibacterial activity against multi-drug resistant Escherichia coli 1 clinical isolate assessed as bacterial growth inhibition in presence of CAMHB medium by broth microdilution method; format: functional
[9] = system: Escherichia coli; test: Antibacterial activity against multi-drug resistant Escherichia coli 2 clinical isolate assessed as bacterial growth inhibition in presence of CAMHB medium by broth microdilution method; format: functional
[10] = system: Escherichia coli; test: Antibacterial activity against multi-drug resistant Escherichia coli 3 clinical isolate assessed as bacterial growth inhibition in presence of CAMHB medium by broth microdilution method; format: functional
[11] = system: Escherichia coli; test: Antibacterial activity against multi-drug resistant Escherichia coli 4 clinical isolate assessed as bacterial growth inhibition in presence of CAMHB medium by broth microdilution method; format: functional
[12] = system: Escherichia coli; test: Antibacterial activity against multi-drug resistant Escherichia coli 5 clinical isolate assessed as bacterial growth inhibition in presence of CAMHB medium by broth microdilution method; format: functional
[13] = system: Acinetobacter baumannii; test: Antibacterial activity against multi-drug resistant Acinetobacter baumannii 1 clinical isolate assessed as bacterial growth inhibition in presence of CAMHB medium by broth microdilution method; format: functional
[14] = system: Acinetobacter baumannii; test: Antibacterial activity against multi-drug resistant Acinetobacter baumannii 2 clinical isolate assessed as bacterial growth inhibition in presence of CAMHB medium by broth microdilution method; format: functional
[15] = system: Acinetobacter baumannii; test: Antibacterial activity against multi-drug resistant Acinetobacter baumannii 3 clinical isolate assessed as bacterial growth inhibition in presence of CAMHB medium by broth microdilution method; format: functional
[16] = system: Acinetobacter baumannii; test: Antibacterial activity against multi-drug resistant Acinetobacter baumannii 4 clinical isolate assessed as bacterial growth inhibition in presence of CAMHB medium by broth microdilution method; format: functional
[17] = system: Acinetobacter baumannii; test: Antibacterial activity against multi-drug resistant Acinetobacter baumannii 5 clinical isolate assessed as bacterial growth inhibition in presence of CAMHB medium by broth microdilution method; format: functional

| SMILES | MIC [1] | MIC [2] | MIC [3] | MIC [4] | IC50 at 48 h [5] | IC50 at 48 h [6] | other results |
| --- | --- | --- | --- | --- | --- | --- | --- |
| Cc1ccc(CCN2COc3c(cc(Cl)c4cccnc34)C2)cc1 | 50 µg/mL | – | – | – | – | – | – |
| Clc1ccc(OCCN2COc3c(cc(Br)c4cccnc34)C2)cc1 | 50 µg/mL | – | – | – | – | – | – |
| FC(F)(F)c1ccc(CN2COc3c(cc(Br)c4cccnc34)C2)cc1 | 50 µg/mL | – | – | – | – | – | – |
| Oc1ccc(CCN2COc3c(cc(F)c4cccnc34)C2)cc1 | > 100 µg/mL | – | – | – | – | – | – |
| FC(F)(F)Oc1ccc(CN2COc3c(cc(Br)c4cccnc34)C2)cc1 | > 100 µg/mL | – | – | – | – | – | – |
| Brc1ccc(CCN2COc3c(cc(Br)c4cccnc34)C2)cc1 | 50 µg/mL | – | – | – | – | – | – |
| Fc1cc2c(c3ncccc13)OCN(Cc1ccc(Cl)cc1)C2 | 6.25 µg/mL | 6.25 µg/mL | 100 µg/mL | 50 µg/mL | > 50 µg/mL | 35.6 µg/mL (≈ 108 µM) | MIC [7]: 25 µg/mL; MIC [8]: 50 µg/mL; MIC [9]: 50 µg/mL; MIC [10]: 50 µg/mL; MIC [11]: 50 µg/mL; MIC [12]: 50 µg/mL; MIC [13]: 12.5 µg/mL; MIC [14]: 25 µg/mL; MIC [15]: 12.5 µg/mL; MIC [16]: 3.12 µg/mL; MIC [17]: 25 µg/mL |
| Clc1ccc(CN2COc3c(cc(Br)c4cccnc34)C2)cc1 | > 100 µg/mL | – | – | – | – | – | – |
| Brc1cc2c(c3ncccc13)OCN(Cc1ccccc1)C2 | 25 µg/mL | – | – | – | – | – | – |
| Fc1cc2c(c3ncccc13)OCN(CCc1ccc(Cl)cc1)C2 | 6.25 µg/mL | 25 µg/mL | 50 µg/mL | 100 µg/mL | > 50 µg/mL | 29.2 µg/mL (≈ 85.2 µM) | MIC [7]: 25 µg/mL; MIC [8]: 50 µg/mL; MIC [9]: 50 µg/mL; MIC [10]: 50 µg/mL; MIC [11]: 50 µg/mL; MIC [12]: 50 µg/mL; MIC [13]: 100 µg/mL; MIC [14]: 50 µg/mL; MIC [15]: 100 µg/mL; MIC [16]: 100 µg/mL; MIC [17]: 100 µg/mL |
| Brc1cc2c(c3ncccc13)OCN(CCc1ccccc1)C2 | 25 µg/mL | – | – | – | – | – | – |
| COc1ccc(CCN2COc3c(cc(Br)c4cccnc34)C2)cc1OC | > 100 µg/mL | – | – | – | – | – | – |
| Brc1cc2c(c3ncccc13)OCN(CCCc1ccccc1)C2 | 50 µg/mL | – | – | – | – | – | – |
| Clc1ccc(OCCN2COc3c(cc(Cl)c4cccnc34)C2)cc1 | 25 µg/mL | – | – | – | – | – | – |
| Fc1cc2c(c3ncccc13)OCN(CCc1cccc(Cl)c1)C2 | 6.25 µg/mL | 6.25 µg/mL | 50 µg/mL | 100 µg/mL | > 50 µg/mL | 42.3 µg/mL (≈ 123 µM) | MIC [7]: 25 µg/mL; MIC [8]: 50 µg/mL; MIC [9]: 50 µg/mL; MIC [10]: 50 µg/mL; MIC [11]: 50 µg/mL; MIC [12]: 50 µg/mL; MIC [13]: 6.25 µg/mL; MIC [14]: 25 µg/mL; MIC [15]: 25 µg/mL; MIC [16]: 12.5 µg/mL; MIC [17]: 25 µg/mL |
| Fc1ccc(CCN2COc3c(cc(Br)c4cccnc34)C2)cc1 | 25 µg/mL | – | – | – | – | – | – |
| Clc1cc2c(c3ncccc13)OCN(CCc1cccc(Br)c1)C2 | > 100 µg/mL | – | – | – | – | – | – |
| FC(F)(F)Oc1ccc(CN2COc3c(cc(Cl)c4cccnc34)C2)cc1 | 50 µg/mL | – | – | – | – | – | – |
| Brc1cc2c(c3ncccc13)OCN(CCCCc1ccccc1)C2 | 25 µg/mL | – | – | – | – | – | – |
| Cc1ccc(CCN2COc3c(cc(Br)c4cccnc34)C2)cc1 | 50 µg/mL | – | – | – | – | – | – |

More lines, in order of falling MIC [1], values ahead:

| MIC [1] | MIC [2] | MIC [3] | MIC [4] | SMILES | IC50 at 48 h [5] | IC50 at 48 h [6] | other results |
| --- | --- | --- | --- | --- | --- | --- | --- |
| 25 µg/mL | – | – | – | Fc1ccc(CN2COc3c(cc(F)c4cccnc34)C2)c(F)c1 | – | – | – |
| 25 µg/mL | – | – | – | Clc1cccc(CN2COc3c(cc(Br)c4cccnc34)C2)c1 | – | – | – |
| 25 µg/mL | – | – | – | COc1ccc(CCN2COc3c(cc(Cl)c4cccnc34)C2)cc1OC | – | – | – |
| 25 µg/mL | – | – | – | Fc1cc2c(c3ncccc13)OCN(Cc1ccccc1)C2 | – | – | – |
| 25 µg/mL | – | – | – | Clc1cc2c(c3ncccc13)OCN(CCOc1ccccc1)C2 | – | – | – |
| 25 µg/mL | – | – | – | FC(F)(F)c1ccc(CN2COc3c(cc(Cl)c4cccnc34)C2)cc1 | – | – | – |
| 25 µg/mL | – | – | – | Fc1cc(CN2COc3c(cc(F)c4cccnc34)C2)cc(F)c1F | – | – | – |
| 25 µg/mL | – | – | – | Fc1cc2c(c3ncccc13)OCN(Cc1ccc(OC(F)(F)F)cc1)C2 | – | – | – |
| 25 µg/mL | – | – | – | Fc1ccc(CN2COc3c(cc(Br)c4cccnc34)C2)c(F)c1 | – | – | – |
| 25 µg/mL | – | – | – | Cc1ccc(CCN2COc3c(cc(F)c4cccnc34)C2)cc1 | – | – | – |
| 25 µg/mL | – | – | – | Fc1cc(CN2COc3c(cc(Br)c4cccnc34)C2)cc(F)c1F | – | – | – |
| 25 µg/mL | – | – | – | Fc1cc(CN2COc3c(cc(Cl)c4cccnc34)C2)cc(F)c1F | – | – | – |
| 25 µg/mL | – | – | – | Brc1cc2c(c3ncccc13)OCN(CCOc1ccccc1)C2 | – | – | – |
| 25 µg/mL | – | – | – | Fc1cc2c(c3ncccc13)OCN(CCOc1ccccc1)C2 | – | – | – |
| 12.5 µg/mL | 12.5 µg/mL | 100 µg/mL | 100 µg/mL | Fc1cc2c(c3ncccc13)OCN(Cc1ccc(C(F)(F)F)cc1)C2 | 46.1 µg/mL (≈ 127 µM) | 7.93 µg/mL (≈ 21.9 µM) | – |
| 12.5 µg/mL | 6.25 µg/mL | 50 µg/mL | 100 µg/mL | Fc1ccc(CCN2COc3c(cc(Cl)c4cccnc34)C2)cc1 | 40.1 µg/mL (≈ 117 µM) | 17.8 µg/mL (≈ 52.1 µM) | – |
| 12.5 µg/mL | 12.5 µg/mL | 50 µg/mL | 100 µg/mL | Clc1cccc(CN2COc3c(cc(Cl)c4cccnc34)C2)c1 | > 50 µg/mL | 23.9 µg/mL (≈ 69.1 µM) | – |
| 12.5 µg/mL | 6.25 µg/mL | > 100 µg/mL | 100 µg/mL | Clc1cc2c(c3ncccc13)OCN(CCc1ccc(Br)cc1)C2 | > 50 µg/mL | 35.2 µg/mL (≈ 87.3 µM) | – |
| 12.5 µg/mL | 3.12 µg/mL | 100 µg/mL | 100 µg/mL | Clc1cc2c(c3ncccc13)OCN(CCCCc1ccccc1)C2 | > 50 µg/mL | 33.8 µg/mL (≈ 95.9 µM) | – |
| 12.5 µg/mL | 12.5 µg/mL | 100 µg/mL | 100 µg/mL | Fc1ccc(CCN2COc3c(cc(F)c4cccnc34)C2)cc1 | 27.7 µg/mL (≈ 84.8 µM) | 15.8 µg/mL (≈ 48.3 µM) | – |
| 12.5 µg/mL | 6.12 µg/mL | > 100 µg/mL | 100 µg/mL | Clc1ccc(CCN2COc3c(cc(Cl)c4cccnc34)C2)cc1 | > 50 µg/mL | 39.7 µg/mL (≈ 110 µM) | – |
| 12.5 µg/mL | 12.5 µg/mL | 50 µg/mL | 100 µg/mL | Fc1cc2c(c3ncccc13)OCN(CCOc1ccc(Cl)cc1)C2 | > 50 µg/mL | 22.3 µg/mL (≈ 62 µM) | – |
| 12.5 µg/mL | 6.25 µg/mL | > 100 µg/mL | 100 µg/mL | Clc1cc2c(c3ncccc13)OCN(Cc1ccccc1)C2 | > 50 µg/mL | 33.8 µg/mL (≈ 109 µM) | – |
| 6.25 µg/mL | 6.25 µg/mL | 50 µg/mL | 50 µg/mL | Fc1cc2c(c3ncccc13)OCN(Cc1cccc(Cl)c1)C2 | 34 µg/mL (≈ 103 µM) | 19 µg/mL (≈ 57.7 µM) | – |
| 6.25 µg/mL | 6.25 µg/mL | 50 µg/mL | 100 µg/mL | Fc1cc2c(c3ncccc13)OCN(CCc1ccccc1)C2 | 14.7 µg/mL (≈ 47.8 µM) | 8.97 µg/mL (≈ 29.1 µM) | – |
| 6.25 µg/mL | 6.25 µg/mL | > 100 µg/mL | 100 µg/mL | Fc1cc2c(c3ncccc13)OCN(CCCCc1ccccc1)C2 | 36.1 µg/mL (≈ 107 µM) | 29.3 µg/mL (≈ 87.1 µM) | – |
| 6.25 µg/mL | 6.25 µg/mL | 50 µg/mL | 100 µg/mL | Fc1cc2c(c3ncccc13)OCN(CCCc1ccccc1)C2 | 13.6 µg/mL (≈ 42.1 µM) | 26 µg/mL (≈ 80.5 µM) | – |
| 3.12 µg/mL | 3.12 µg/mL | 25 µg/mL | 25 µg/mL | Fc1cccc(CCN2COc3c(cc(F)c4cccnc34)C2)c1 | 21.3 µg/mL (≈ 65.2 µM) | 29.4 µg/mL (≈ 90.2 µM) | – |
